Experimental data from patent US20040248953A1, “3-Arylsulfanyl and 3-heteroarylsulfanyl substituted benzo[b]thiophenes as therapeutic agents” (priority 2003, published 2004).
pIC50: −log10 of the molar value.

Target: T1, PI3Kγ (Homo sapiens, UniProt P48736)
T1 construct: HA; made in house; host or cells: Spodoptera frugiperda (Sf9) cells, baculovirus coinfection
Experiment: PI3Kγ in vitro kinase assay (32P-ATP, PIP2 lipid micelles, filter plate)
Type: biochemical
Settings: purified recombinant p101/p110γ protein with G protein β1/γ2 subunits; 20 μM ATP; 25 μM PIP2; 20 minutes at room temperature
Protocol: Spodtera frugiperda cells, grown in ESF921 media, were coinfected with baculovirus expressing a glu-tagged p101 and baculovirus expressing an HA-tagged p110γ, at a 3:1 ratio of p101 baculovirus to p110γ baculovirus. Sf9 cells were grown to 1×10^7 total cells/mL in 10 L bioreactors and harvested 48-72 hours post infection. Samples of infected cells were then tested for expression of p101/p110γ PI3 kinase by immunoprecipitation and Western Blot analysis methods (see below). To purify PI3Kγ, 4 volumes of room temperature hypotonic lysis buffer (1 mM MgCl2, 1 mM DTT, 5 mM EGTA, 1 mM Pefabloc, 0.5 μM aprotinin, 5 μM leupeptin, 2 μM pepstatin, 5 μM E64, pH 8) per gram of cell paste, was poured onto frozen cell pellets with stirring, then lysed in a nitrogen “bomb” at 400 psi (599HC […], Parr Instrument Co, Moline, Ill.). NaCl was added to 150 mM, and sodium cholate was added to 1% and mixed for another 45 minutes. The lysates were clarified by centrifugation for 25 minutes at 14,000 rpm. The lysates were then loaded over anti-glu-linked Protein-G Sepaharose beads (Covance Research Products, Richmond, Calif.) using 20 mL resin/50 g cell paste. The column was washed with 15 volumes of wash buffer (1 mM DTT, 0.2 mM EGTA, 1 mM Pefabloc, 0.5 μM aprotinin, 5 μM leupeptin, 2 μM pepstatin, 5 μM E64, 150 mM NaCl, 1% sodium cholate, pH 8). PI3Kγ was eluted with 6 column volumes of wash buffer that contain 100 μg/mL of a peptide that competes for binding of the glu tag. The column fractions with the eluted protein (determined by taking OD280 readings) were collected and dialyzed in 0.2 mM EGTA, 1 mM DTT, 1 mM Pefabloc, 5 μM leupeptin, 0.5% sodium cholate, 150 mM NaCl, and 50% glycerol, pH 8. The fractions were stored at -80° C. until further use. Spodtera frugiperda cells were coinfected with baculovirus expressing a glu-tagged G protein β1 and baculovirus expressing a […], at a 1:1 ratio of glu-tagged G protein β1 baculovirus to G protein β2 baculovirus. Sf9 cells are grown in 10 L bioreactors and harvested 48-72 hours post infection. Samples of infected cells were tested for G protein β1/β2 expression by Western Blot analysis, as described below. Cell lysates were homogenized and loaded onto a column of glu-tagged beads as in Biological Example 1 and competed off the column with a glu peptide and processed as described in Biological Example 1. The inhibitory properties of the compounds in Table 1 were assayed in an in vitro PI3K assay. In a 96-well polypropylene plate, each well was spotted with […] of 50 times the desired final concentration of compound in DMSO. Purified recombinant p101/p110γ protein (0.03 μg; 2.7 nM) and G protein β1/γ2 subunits (0.09 μg; 57.7 nM) for each reaction was combined in the assay buffer (30 mM HEPES, 100 mM NaCl, 1 mM EGTA, and 1 mM DTT). ATP and [γ-^32P-ATP] (0.09 μCi) were added to this mixture so that the final ATP concentration in the reaction was 20 μM. Lipid micelles were formed by sonicating phosphatidylinositol4,5-diphosphate (PIP2), phosphatidylethanolamine (PE), and Na-cholate in the assay buffer for 10 minutes, adding MgCl2 and incubating on ice for 20 minutes, for final concentrations of 25 μM PIP2, 300 μM PE, 0.02% Na-cholate, and 10 mM MgCl2 in the reaction. The reactions were started by adding equal volumes lipid and enzyme mixture in a total volume of 50 μL, allowed to run for 20 minutes at room temperature, and stopped with 100 μL 75 mM H3PO4. The lipid product was transferred to a glass fiber filter plate and washed with 75 mM H3PO4 several times. The presence of radioactive lipid product (PIP3) was measured by adding Wallac Optiphase mix to each well and counting in a Wallac 1450 Trilux plate reader (PerkinElmer Life Sciences Inc., Boston, Mass. 02118). The IC50 for each compound tested is reported in μM in Table 1: […]

T1 sequence (P48736 whole entry, species assumed): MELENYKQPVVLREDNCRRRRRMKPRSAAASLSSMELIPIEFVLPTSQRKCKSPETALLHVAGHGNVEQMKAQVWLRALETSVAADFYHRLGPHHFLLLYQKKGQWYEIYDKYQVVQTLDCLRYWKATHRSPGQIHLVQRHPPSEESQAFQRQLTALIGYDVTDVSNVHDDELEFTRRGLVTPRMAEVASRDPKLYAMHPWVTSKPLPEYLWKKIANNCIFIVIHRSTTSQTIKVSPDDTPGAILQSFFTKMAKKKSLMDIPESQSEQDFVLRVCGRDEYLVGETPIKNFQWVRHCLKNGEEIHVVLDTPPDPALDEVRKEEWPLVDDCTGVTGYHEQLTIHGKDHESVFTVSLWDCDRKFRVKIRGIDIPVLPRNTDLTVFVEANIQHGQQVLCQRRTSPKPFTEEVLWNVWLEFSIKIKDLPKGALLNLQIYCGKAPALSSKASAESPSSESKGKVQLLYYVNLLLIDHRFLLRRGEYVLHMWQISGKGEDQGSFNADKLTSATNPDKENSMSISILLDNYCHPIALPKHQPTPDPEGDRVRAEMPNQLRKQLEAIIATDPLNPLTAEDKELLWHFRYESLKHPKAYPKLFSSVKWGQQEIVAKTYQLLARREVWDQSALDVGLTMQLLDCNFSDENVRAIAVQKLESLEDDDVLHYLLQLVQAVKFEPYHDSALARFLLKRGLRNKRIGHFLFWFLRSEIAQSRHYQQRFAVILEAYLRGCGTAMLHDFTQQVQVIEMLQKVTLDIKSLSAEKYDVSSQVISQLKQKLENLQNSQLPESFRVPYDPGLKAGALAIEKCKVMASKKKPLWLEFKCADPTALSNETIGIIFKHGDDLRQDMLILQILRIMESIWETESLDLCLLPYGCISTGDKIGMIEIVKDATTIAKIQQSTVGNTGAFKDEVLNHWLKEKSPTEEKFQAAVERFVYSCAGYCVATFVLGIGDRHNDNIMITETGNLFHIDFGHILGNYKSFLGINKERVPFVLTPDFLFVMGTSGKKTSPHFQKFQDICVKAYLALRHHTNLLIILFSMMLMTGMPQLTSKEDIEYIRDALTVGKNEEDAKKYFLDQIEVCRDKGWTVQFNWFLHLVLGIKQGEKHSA
T1 sequence (Q8WYR1 whole entry partner, species assumed): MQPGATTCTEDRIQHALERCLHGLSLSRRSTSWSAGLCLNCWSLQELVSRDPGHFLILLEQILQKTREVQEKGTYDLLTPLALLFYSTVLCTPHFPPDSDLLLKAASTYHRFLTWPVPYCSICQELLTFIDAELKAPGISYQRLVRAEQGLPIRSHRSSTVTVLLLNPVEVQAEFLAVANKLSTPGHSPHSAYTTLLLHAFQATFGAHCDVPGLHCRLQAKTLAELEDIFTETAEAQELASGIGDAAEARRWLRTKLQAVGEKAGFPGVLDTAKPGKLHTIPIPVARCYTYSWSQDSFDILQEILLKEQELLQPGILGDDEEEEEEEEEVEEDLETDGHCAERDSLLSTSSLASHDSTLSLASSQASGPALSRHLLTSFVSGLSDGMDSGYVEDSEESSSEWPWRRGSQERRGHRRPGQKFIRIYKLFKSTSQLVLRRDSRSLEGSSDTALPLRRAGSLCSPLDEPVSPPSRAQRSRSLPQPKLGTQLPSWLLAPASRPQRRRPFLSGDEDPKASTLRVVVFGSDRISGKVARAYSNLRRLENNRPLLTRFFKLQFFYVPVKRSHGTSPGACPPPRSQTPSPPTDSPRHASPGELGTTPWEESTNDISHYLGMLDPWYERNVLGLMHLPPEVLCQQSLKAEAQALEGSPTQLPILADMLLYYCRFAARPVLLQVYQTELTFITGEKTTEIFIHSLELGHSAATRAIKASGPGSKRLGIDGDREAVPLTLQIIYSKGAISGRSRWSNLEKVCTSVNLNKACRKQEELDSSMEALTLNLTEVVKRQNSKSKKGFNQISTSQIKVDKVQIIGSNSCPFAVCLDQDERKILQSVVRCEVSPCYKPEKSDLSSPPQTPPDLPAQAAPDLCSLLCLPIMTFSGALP

pIC50 | Compound
6.77 | 3-(3-Chloro-phenylsulfanyl)-5-methoxy-6-methyl-benzo[b]thiophene-2-carboxylic acid(1H-tetrazol-5-yl)-amide [Example 33]
6.67 | 3-[2-(Acetyl-methyl-amino)-1-phenyl-propylsulfanyl]-6-methoxy-5-methyl-benzo[b]thiophene-2-carboxylic acid(1H-tetrazol-5-yl)-amide [Example 43]
6.28 | 5,6-dimethoxy-3-phenethylsulfanyl-benzo[b]thiophene-2-carboxylic acid(1H-tetrazol-5-yl)-amide [Example 13]
5.55 | 5-Ethoxy-3-phenethylsulfanyl-benzo[b]thiophene-2-carboxylic acid(1H-tetrazol-5-yl)-amide [Example 52]
5.66 | 5-methoxy-3-(2-methyl-furan-3-ylsulfanyl)-benzo[b]thiophene-2-carboxylic acid(1H-tetrazol-5-yl)-amide [Example 16]
7.22 | COc1cc2sc(C(=O)Nc3nnn[nH]3)c(Sc3ccccc3)c2cc1OC [Example 1, 5,6-Dimethoxy-3-phenylsulfanyl-benzo[b]thiophene-2-carboxylic acid(1H-tetrazol-5-yl)-amide]
6.75 | COc1cc2c(Sc3ccccc3)c(C(=O)Nc3nnn[nH]3)sc2cc1C [Example 2, 5-Methoxy-6-methyl-3-phenylsulfanyl-benzo[b]thiophene-2-carboxylic acid(1H-tetrazol-5-yl)-amide]
6.60 | CCOc1ccc2sc(C(=O)Nc3nnn[nH]3)c(Sc3ccccc3)c2c1 [Example 3, 5-Ethoxy-3-phenylsulfanyl-benzo[b]thiophene-2-carboxylic acid (1H-tetrazol-5-yl)-amide]
5.56 | COc1ccc2sc(C(=O)Nc3nnn[nH]3)c(Sc3ccc(O)cc3)c2c1 [Example 4, 3-(4-hydroxy-phenylsulfanyl)-5-methoxy-benzo[b]thiophene-2-carboxylic acid(1H-tetrazol-5-yl)-amide]
5.90 | COc1cc2sc(C(=O)Nc3nnn[nH]3)c(Sc3ccccc3C)c2cc1OC [Example 5, 5,6-dimethoxy-3-o-tolysulfanyl-benzo[b]thiophene-2-carboxylic acid(1H-tetrazol-5-yl)-amide]
5.93 | CCc1ccccc1Sc1c(C(=O)Nc2nnn[nH]2)sc2cc(OC)c(OC)cc12 [Example 6, 3-(2-ethyl-phenylsulfanyl)-5,6-dimethoxy-benzo[b]thiophene-2-carboxylic acid(1H-tetrazol-5-yl)-amide]
5.70 | COc1cc2sc(C(=O)Nc3nnn[nH]3)c(Sc3cccc(Cl)c3)c2cc1OC [Example 7, 3-(3-chloro-phenylsulfanyl)-5,6-dimethoxy-benzo[b]thiophene-2-carboxylic acid(1H-tetrazol-5-yl)-amide]
5.43 | COc1cc2sc(C(=O)Nc3nnn[nH]3)c(Sc3ccc(Cl)cc3)c2cc1OC [Example 8, 3-(4-chloro-phenylsulfanyl)-5,6-dimethoxy-benzo[b]thiophene-2-carboxylic acid(1H-tetrazol-5-yl)-amide]
5.55 | COc1cc2sc(C(=O)Nc3nnn[nH]3)c(Sc3ccc(C)cc3C)c2cc1OC [Example 9, 3-(2,4-dimethyl-phenylsulfanyl)-5,6-dimethoxy-benzo[b]thiophene-2-carboxylic acid(1H-tetrazol-5-yl)-amide]
5.95 | COc1cc2sc(C(=O)Nc3nnn[nH]3)c(Sc3cccc(Cl)c3Cl)c2cc1OC [Example 10, 3-(2,3-dichloro-phenylsulfanyl)-5,6-dimethoxy-benzo[b]thiophene-2-carboxylic acid(1H-tetrazol-5-yl)-amide]
5.68 | COc1cc2sc(C(=O)Nc3nnn[nH]3)c(Sc3ccc(C)c(C)c3)c2cc1OC [Example 11, 3-(3,4-dimethyl-phenylsulfanyl)-5,6-dimethoxy-benzo[b]thiophene-2-carboxylic acid(1H-tetrazol-5-yl)-amide]
5.91 | COc1cc2sc(C(=O)Nc3nnn[nH]3)c(Sc3ccc(Cl)c(Cl)c3)c2cc1OC [Example 12, 3-(3,4-dichloro-phenylsulfanyl)-5,6-dimethoxy-benzo[b]thiophene-2-carboxylic acid(1H-tetrazol-5-yl)-amide]
5.64 | COc1cc(Sc2c(C(=O)Nc3nnn[nH]3)sc3cc(OC)c(OC)cc23)ccc1O [Example 14, 3-(4-hydroxy-3-methoxy-phenylsulfanyl)-5,6-dimethoxy-benzo[b]thiophene-2-carboxylic acid(1H-tetrazol-5-yl)-amide]
6.21 | COc1ccc(OC)c(Sc2c(C(=O)Nc3nnn[nH]3)sc3cc(OC)c(OC)cc23)c1 [Example 15, 3-(2,5-dimethoxy-phenylsulfanyl)-5,6-dimethoxy-benzo[b]thiophene-2-carboxylic acid(1H-tetrazol-5-yl)-amide]
5.58 | COc1ccc2sc(C(=O)Nc3nnn[nH]3)c(Sc3ccccc3)c2c1 [Example 17, 5-methoxy-3-phenylsulfanyl-benzo[b]thiophene-2-carboxylic acid(1H-tetrazol-5-yl)-amide]
6.33 | COc1ccc2sc(C(=O)Nc3nnn[nH]3)c(Sc3ccccc3C)c2c1 [Example 18, 5-methoxy-3-o-tolysulfanyl-benzo[b]thiophene-2-carboxylic acid (1H-tetrazol-5-yl)-amide]
5.65 | COc1ccc2sc(C(=O)Nc3nnn[nH]3)c(Sc3ccccc3Cl)c2c1 [Example 19, 3-(2-chloro-phenylsulfanyl)-5-methoxy-benzo[b]thiophene-2-carboxylic acid(1H-tetrazol-5-yl)-amide]
5.53 | COc1ccc2sc(C(=O)Nc3nnn[nH]3)c(Sc3ccccc3Br)c2c1 [Example 20, 3-(2-bromo-phenylsulfanyl)-5-methoxy-benzo[b]thiophene-2-carboxylic acid(1H-tetrazol-5-yl)-amide]
5.37 | COc1ccc2sc(C(=O)Nc3nnn[nH]3)c(Sc3cccc(Cl)c3)c2c1 [Example 21, 3-(3-chloro-phenylsulfanyl)-5-methoxy-benzo[b]thiophene-2-carboxylic acid(1H-tetrazol-5-yl)-amide]
5.53 | COc1cccc(Sc2c(C(=O)Nc3nnn[nH]3)sc3ccc(OC)cc23)c1 [Example 22, 5-methoxy-3-(3methoxyphenylsulfanyl)-benzo[b]thiophene-2-carboxylic acid(1H-tetrazol-5-yl)-amide]
5.31 | COc1ccc2sc(C(=O)Nc3nnn[nH]3)c(Sc3ccc(Cl)cc3)c2c1 [Example 23, 3-(4-chloro-phenylsulfanyl)-5-methoxy-benzo[b]thiophene-2-carboxylic acid(1H-tetrazol-5-yl)-amide]
5.91 | COc1ccc(OC)c(Sc2c(C(=O)Nc3nnn[nH]3)sc3ccc(OC)cc23)c1 [Example 24, 3-(2,5-dimethoxy-phenylsulfanyl)-5-methoxy-benzo[b]thiophene-2-carboxylic acid(1H-tetrazol-5-yl)-amide]
5.80 | COc1ccc2sc(C(=O)Nc3nnn[nH]3)c(SCCc3ccccc3)c2c1 [Example 26, 5-methoxy-3-phenethylsulfanyl-benzo[b]thiophene-2-carboxylic acid(1H-tetrazol-5-yl)-amide]

Compound | pIC50
3-(2,3-dichloro-phenylsulfanyl)-5-methoxy-benzo[b]thiophene-2-carboxylic acid(1H-tetrazol-5-yl)-amide [Example 25] | 5.46
